# Several values for one entry are separate records, joined by “and”; a condition that tells them apart may be missing. Equal values may be shown once.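 Cultured in 96-well plates, cells were exposed to test compound for 48 hours across five concentrations. Abbreviation: GI50, concentration required for 50% inhibition of growth. The concentration for full growth arrest is given as TGI.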
# Experiments:
# Assay in all cases: NCI-60 cell line screen, 48 h
# HOP-18 NSCLC = tested on: HOP-18 NSCLC
# HCT-116 colon = tested on: HCT-116 colon
# MALME-3M melanoma = tested on: MALME-3M melanoma
# DMS 114 small cell lung = tested on: DMS 114 small cell lung
# UO-31 renal = tested on: UO-31 renal
# OVCAR-8 ovarian = tested on: OVCAR-8 ovarian
# T-47D breast = tested on: T-47D breast
# M14 melanoma = tested on: M14 melanoma
# OVCAR-5 ovarian = tested on: OVCAR-5 ovarian
# DMS 273 small cell lung = tested on: DMS 273 small cell lung
SMILES,GI50 (HOP-18 NSCLC) [µM],TGI (HOP-18 NSCLC),GI50 (HCT-116 colon),TGI (HCT-116 colon),GI50 (MALME-3M melanoma),TGI (MALME-3M melanoma),GI50 (DMS 114 small cell lung),TGI (DMS 114 small cell lung),GI50 (UO-31 renal),TGI (UO-31 renal),GI50 (OVCAR-8 ovarian) [µM],TGI (OVCAR-8 ovarian),TGI (T-47D breast),GI50 (M14 melanoma),TGI (M14 melanoma),GI50 (OVCAR-5 ovarian),TGI (OVCAR-5 ovarian),GI50 (DMS 273 small cell lung),TGI (DMS 273 small cell lung)
CCOC(=O)NC1=C(N2CC2)C(=O)C(NC(=O)OCC)=C(N2CC2)C1=O,8.57,24.4 µM and 49.9 µM,4.59 µM and 4.37 µM,15.1 µM and 9.91 µM and 11.8 µM,5.79 µM,18 µM and 18.3 µM and 15.6 µM,3.49 µM,7.85 µM and 7.33 µM,11.1 µM and 4 µM,25 µM and 21.7 µM and 22.4 µM,4.71,14.3 µM and 14.5 µM,16.8 µM,4.91 µM and 4.5 µM,25 µM and 23.7 µM and 31.7 µM,19.9 µM and 7.01 µM,25 µM and 32.6 µM and 35.9 µM,1.01 µM,20.5 µM and 41.4 µM
O=C(NCCCCCCNC(=O)n1cc(F)c(=O)[nH]c1=O)NCCCOCCOCCOCCOCCOCCOCCOCCOCCOCCOCCOCCOCCOCCOCCOCCOCCOCCOCCOCCOCCOCCCNC(=O)C(O)C(O)C(OC1OC(CO)C(O)C(O)C1O)C(O)CO (centres undefined),–,> 100 µM,–,> 100 µM,–,> 100 µM,–,> 100 µM,–,> 100 µM,–,> 100 µM,> 100 µM,–,> 100 µM,–,> 100 µM,–,> 100 µM
NC(=S)N/N=C/c1ccc(O)cn1,21,134 µM and 974 µM,13.7 µM and 6.53 µM,> 1500 µM and 369 µM,31 µM and 13.4 µM,113 µM and 138 µM,3.78 µM and 1.04 µM and 2.04 µM,–,25.5 µM and 7.24 µM,66.7 µM and 42 µM and 136 µM,4.71,72.3 µM and 161 µM and 393 µM,> 451 µM,16.3 µM,35.6 µM and 25.6 µM,30.2 µM and 34.8 µM,> 1500 µM and 928 µM,8.83 µM and 5.35 µM,31.1 µM and 37 µM and 16.7 µM
Clc1cccc(N2CCN(CCN3CCc4c([nH]c5ccccc45)C3c3cccnc3)CC2)c1 (centres undefined),–,> 100 µM,–,> 91.3 µM,–,> 100 µM,–,> 100 µM,–,> 100 µM,–,> 100 µM,> 100 µM,–,> 100 µM,–,> 92.1 µM,–,> 100 µM
OC(C1CO1)C(O)C1CO1 (centres undefined),–,150 µM,40.2 µM,110 µM and 209 µM,–,125 µM and 263 µM,–,150 µM,37 µM,112 µM and 199 µM,–,115 µM and 453 µM,150 µM and 425 µM,28.7 µM,94.6 µM and 165 µM,93.9 µM,137 µM and 237 µM,–,76.9 µM
Cc1ccc(C(=O)N2CCN(C(=O)c3ccc(C)cc3)c3ccccc32)cc1,–,> 100 µM,–,> 62.6 µM,–,> 100 µM,–,18 µM,–,> 56.6 µM,–,> 100 µM,> 100 µM,–,> 100 µM,–,> 100 µM,–,> 35.8 µM
CCC(=O)C(C)C(=O)C(=O)C(=O)OC (centres undefined),–,> 100 µM,–,> 100 µM,–,> 100 µM,–,> 100 µM,–,> 100 µM,–,> 100 µM,–,–,> 100 µM,–,> 100 µM,–,> 100 µM
Nc1nc(NC2C=C(CO)C(O)C2O)c([N+](=O)[O-])c(=O)[nH]1 (centres undefined),–,> 100 µM,–,> 100 µM,–,> 100 µM,–,> 100 µM,–,> 100 µM,–,> 100 µM,–,–,> 100 µM,–,> 100 µM,–,> 100 µM

# Reference: PubChem BioAssay (NCI)
